Source: ChEMBL document CHEMBL3885861, “Open TG-GATES”

Species on record: Rattus norvegicus
Test: Open TG-GATES - Regimen: Single
Type: toxicity, organism-based, Sprague-Dawley
Parameters: regimen Single, gender Male, age 6 weeks
Settings: in vivo, po, 300 mg/kg, route gavage, dose level Middle; for APTT / Bas / Eos / Fbg / Hb / Ht / Lym / MCH / MCHC / MCV / Mono / Neu / PT / Plat / RBC / Ret / WBC: tissue Blood; for KIDNEY_L / KIDNEY_R / KIDNEY_TOTAL: tissue Kidney; for LIVER: tissue Liver; for A/G / ALP / ALT / AST / BUN / CRE / Ca / Cl / DBIL / GLC / IP / K / LDH / Na / PL / RALB / TBIL / TC / TG / TP / gamma-GTP: tissue Plasma

O=C(O)COc1nn(Cc2ccccc2)c2ccccc12 [BENDAZAC]
TERMINAL_BW (3 h): 210.1 g
APTT (3 h): 17.4 s
Bas (3 h): 0%
Eos (3 h): 1%
Fbg (3 h): 206.8 mg/dL
Hb (3 h): 13.9 g/dL
Ht (3 h): 41.6%
Lym (3 h): 80.4%
MCH (3 h): 21.7 pg
MCHC (3 h): 33.5%
MCV (3 h): 64.7 fL
Mono (3 h): 5.2%
Neu (3 h): 13.4%
PT (3 h): 11.7 s
Plat (3 h): 116.9 x10_4/uL
RBC (3 h): 643.4 x10_4/ul
Ret (3 h): 9.9%
WBC (3 h): 91 x10_2/uL
KIDNEY_L (3 h): 1 g
KIDNEY_R (3 h): 1 g
KIDNEY_TOTAL (3 h): 2 g
LIVER (3 h): 9.4 g
A/G (3 h): 2.1
ALP (3 h): 1450 IU/L
ALT (3 h): 35.6 IU/L
AST (3 h): 69.2 IU/L
BUN (3 h): 11.8 mg/dL
CRE (3 h): 0.5 mg/dL
Ca (3 h): 10.6 mg/dL
Cl (3 h): 101 meq/L
DBIL (3 h): 0.014 mg/dL
GLC (3 h): 189.2 mg/dL
IP (3 h): 10.5 mg/dL
K (3 h): 4.9 meq/L
LDH (3 h): 105 IU/L
Na (3 h): 139.4 meq/L
PL (3 h): 124.4 mg/dL
RALB (3 h): 3.6 g/dL
TBIL (3 h): 1.3 mg/dL
TC (3 h): 71.6 mg/dL
TG (3 h): 46 mg/dL
TP (3 h): 5.4 g/dL
gamma-GTP (3 h): 1 IU/L
TERMINAL_BW (6 h): 207.7 g
APTT (6 h): 17.2 s
Bas (6 h): 0%
Eos (6 h): 1.4%
Fbg (6 h): 214.8 mg/dL
Hb (6 h): 13.9 g/dL
Ht (6 h): 41.7%
Lym (6 h): 78.2%
MCH (6 h): 21.7 pg
MCHC (6 h): 33.3%
MCV (6 h): 65.1 fL
Mono (6 h): 7.8%
Neu (6 h): 13%
PT (6 h): 11.9 s
Plat (6 h): 119.6 x10_4/uL
RBC (6 h): 641.8 x10_4/ul
Ret (6 h): 11.7%
WBC (6 h): 98.8 x10_2/uL
KIDNEY_L (6 h): 1 g
KIDNEY_R (6 h): 1 g
KIDNEY_TOTAL (6 h): 2 g
LIVER (6 h): 8.9 g
A/G (6 h): 2.3
ALP (6 h): 3422.2 IU/L
ALT (6 h): 30.2 IU/L
AST (6 h): 60.8 IU/L
BUN (6 h): 8.8 mg/dL
CRE (6 h): 0.6 mg/dL
Ca (6 h): 10.9 mg/dL
Cl (6 h): 101.8 meq/L
DBIL (6 h): 0.066 mg/dL
GLC (6 h): 189.6 mg/dL
IP (6 h): 10.7 mg/dL
K (6 h): 4.9 meq/L
LDH (6 h): 97 IU/L
Na (6 h): 141.2 meq/L
PL (6 h): 135.4 mg/dL
RALB (6 h): 3.8 g/dL
TBIL (6 h): 1.5 mg/dL
TC (6 h): 78.2 mg/dL
TG (6 h): 27 mg/dL
TP (6 h): 5.4 g/dL
gamma-GTP (6 h): 1 IU/L
TERMINAL_BW (9 h): 200.4 g
APTT (9 h): 17.2 s
Bas (9 h): 0%
Eos (9 h): 1%
Fbg (9 h): 205 mg/dL
Hb (9 h): 14 g/dL
Ht (9 h): 41.8%
Lym (9 h): 81.8%
MCH (9 h): 22.3 pg
MCHC (9 h): 33.4%
MCV (9 h): 66.8 fL
Mono (9 h): 5.2%
Neu (9 h): 12%
PT (9 h): 11.8 s
Plat (9 h): 121.4 x10_4/uL
RBC (9 h): 626.2 x10_4/ul
Ret (9 h): 8.8%
WBC (9 h): 86.7 x10_2/uL
KIDNEY_L (9 h): 0.9 g
KIDNEY_R (9 h): 1 g
KIDNEY_TOTAL (9 h): 1.9 g
LIVER (9 h): 7.8 g
A/G (9 h): 2.1
ALP (9 h): 2047.2 IU/L
ALT (9 h): 29 IU/L
AST (9 h): 60.2 IU/L
BUN (9 h): 9.6 mg/dL
CRE (9 h): 0.6 mg/dL
Ca (9 h): 10.3 mg/dL
Cl (9 h): 103.6 meq/L
DBIL (9 h): 0.028 mg/dL
GLC (9 h): 183.8 mg/dL
IP (9 h): 10 mg/dL
K (9 h): 4.7 meq/L
LDH (9 h): 94.4 IU/L
Na (9 h): 143 meq/L
PL (9 h): 126 mg/dL
RALB (9 h): 3.7 g/dL
TBIL (9 h): 1.2 mg/dL
TC (9 h): 72.4 mg/dL
TG (9 h): 39.4 mg/dL
TP (9 h): 5.5 g/dL
gamma-GTP (9 h): 1.2 IU/L
TERMINAL_BW (24 h): 220.3 g
APTT (24 h): 16.8 s
Bas (24 h): 0%
Eos (24 h): 1%
Fbg (24 h): 208.6 mg/dL
Hb (24 h): 13.6 g/dL
Ht (24 h): 40.7%
Lym (24 h): 78.6%
MCH (24 h): 21.3 pg
MCHC (24 h): 33.3%
MCV (24 h): 63.9 fL
Mono (24 h): 9.6%
Neu (24 h): 11%
PT (24 h): 12.2 s
Plat (24 h): 120.5 x10_4/uL
RBC (24 h): 637.8 x10_4/ul
Ret (24 h): 8%
WBC (24 h): 98.3 x10_2/uL
KIDNEY_L (24 h): 1 g
KIDNEY_R (24 h): 1 g
KIDNEY_TOTAL (24 h): 2 g
LIVER (24 h): 11.3 g
A/G (24 h): 2.2
ALP (24 h): 1529.6 IU/L
ALT (24 h): 39 IU/L
AST (24 h): 71.2 IU/L
BUN (24 h): 19.8 mg/dL
CRE (24 h): 0.6 mg/dL
Ca (24 h): 11 mg/dL
Cl (24 h): 104 meq/L
DBIL (24 h): 0.006 mg/dL
GLC (24 h): 187.2 mg/dL
IP (24 h): 6.3 mg/dL
K (24 h): 4.5 meq/L
LDH (24 h): 123.4 IU/L
Na (24 h): 140 meq/L
PL (24 h): 132 mg/dL
RALB (24 h): 3.8 g/dL
TBIL (24 h): 1 mg/dL
TC (24 h): 66.8 mg/dL
TG (24 h): 111 mg/dL
TP (24 h): 5.5 g/dL
gamma-GTP (24 h): 1 IU/L
